The target of this experiment is T1, Neuropeptide Y receptor type 5 (Homo sapiens, UniProt Q15761).
T1 sequence (Q15761 whole entry): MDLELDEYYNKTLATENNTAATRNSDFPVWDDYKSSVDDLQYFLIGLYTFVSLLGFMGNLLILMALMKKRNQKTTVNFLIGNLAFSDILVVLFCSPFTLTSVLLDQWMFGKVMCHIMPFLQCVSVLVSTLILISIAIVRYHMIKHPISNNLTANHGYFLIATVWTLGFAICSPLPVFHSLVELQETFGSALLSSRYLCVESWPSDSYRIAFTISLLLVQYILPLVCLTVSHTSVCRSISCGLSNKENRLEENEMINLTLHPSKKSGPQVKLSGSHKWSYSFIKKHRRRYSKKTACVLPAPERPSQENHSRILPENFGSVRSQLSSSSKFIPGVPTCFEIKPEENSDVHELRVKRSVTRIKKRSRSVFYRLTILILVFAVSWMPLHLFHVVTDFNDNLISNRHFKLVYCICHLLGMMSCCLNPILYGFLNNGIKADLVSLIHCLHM
The experiment is described as follows: Displacement of [125I]PYY from human Neuropeptide Y receptor type 5 in COS-7 cell membranes. For orientation: In a radioligand displacement assay an active substance lowers the binding of a labelled ligand.

Take `Cc1ccc(S(=O)(=O)NC(Cc2ccccc2)C(=O)NCCCCCCNS(=O)(=O)c2cccc3ccccc23)cc1` (centres undefined): the Ki turned out to be 426 nM.
`O=C(NCCCCCCNS(=O)(=O)c1cccc2ccccc12)Nc1cccc2ccccc12` returned an inhibition constant (Ki) of 231 nM.
For the compound `O=C(NC[C@H]1CC[C@H](CNS(=O)(=O)c2ccc3ccccc3c2)CC1)C1CCc2ccccc2C1` (some centres undefined), the Ki was more than 100000 nM.
`O=C(NC[C@H]1CC[C@H](CNS(=O)(=O)c2ccccc2[N+](=O)[O-])CC1)Nc1cccc2ccccc12` came in with a Ki of 103 nM.
As for `O=C(NCCCCCCNS(=O)(=O)c1ccccc1[N+](=O)[O-])Nc1cccc2ccccc12`, the Ki turned out to be 151 nM.
The compound `O=C(NCCCCCCNS(=O)(=O)c1ccccc1[N+](=O)[O-])c1ccc2ccccc2c1` returned a Ki of 412 nM.
With `Cc1ccc(S(=O)(=O)NC(Cc2ccccc2)C(=O)NC[C@H]2CC[C@H](CNS(=O)(=O)c3ccc4ccccc4c3)CC2)cc1` (some centres undefined), affinity was put at a Ki of 199 nM.
The result for `O=S(=O)(NC[C@H]1CC[C@H](CNCc2ccc3c(c2)OCCO3)CC1)c1cccc2ccccc12` reads 12 nM; that for `O=C(NCCCCNS(=O)(=O)c1ccccc1[N+](=O)[O-])Nc1cccc2ccccc12`, 724 nM; that for `O=C(NC[C@H]1CC[C@H](CNS(=O)(=O)c2cccc3ccccc23)CC1)C1CCc2ccccc2C1` (some centres undefined), 4120 nM.
Take `O=C(NCCCCCCNS(=O)(=O)c1ccccc1[N+](=O)[O-])C1CCc2ccccc2C1` (centres undefined): the Ki came to 46 nM.
As to `O=C(NCCCCCCNS(=O)(=O)c1cccc2ccccc12)C1CCc2ccccc2C1` (centres undefined), the affinity corresponds to a Ki of 724 nM.
Turning to `O=C(NC[C@H]1CC[C@H](CNS(=O)(=O)c2ccc3cccc([N+](=O)[O-])c3c2)CC1)C1CCc2ccccc2C1` (some centres undefined), the Ki worked out at 724 nM.
Compound `O=C(NC[C@H]1CC[C@H](CNS(=O)(=O)c2cccc3ccccc23)CC1)Nc1ccc(Cl)c(Cl)c1` yielded a Ki of 95 nM.

For orientation: Ki means a measure of affinity in units of concentration, obtained from inhibition or displacement. A low value points to tighter binding.

The values are drawn from ChEMBL document CHEMBL1135172, “High-throughput synthesis optimization of sulfonamide NPY Y5 antagonists” (Bioorg Med Chem Lett, 2002).
